Data: patent US20100311586A1, “HERBICIDAL COMBINATION” (Bayer CorpScience AG, priority 2007, published 2010)
Values joined by “and” are separate entries in the source; they are usually repeats but may differ in a detail not shown here. Equal entries are not always repeated.

Test system: Polygonum convolvulus
Assay: Post-emergence action against weeds, greenhouse pot test, visual scoring
Type: in vivo
Conditions: 11 days after application, 0%=no control, 100%=complete control
Protocol: Seeds or rhizome pieces of monocotyledonous and dicotyledonous weeds were placed in sandy loam soil in plastic pots, covered with soil and cultivated in a greenhouse under good growth conditions. Three weeks after sowing, the test plants were treated at the 2- to 4-leaf stage. The compounds according to the invention, formulated as wettable powders or as emulsion concentrates, were sprayed onto the green parts of the plants in various dosages at a water application rate of 100 to 800 I/ha (converted). After the test plants had been left to stand in the greenhouse for 10 to 28 days under optimum growth conditions, the effect of the preparations was scored visually in comparison to untreated controls.
0%=no control 100%=complete control

CCOC(=O)[C@@H](C)Oc1ccc(Oc2nc3ccc(Cl)cc3o2)cc1 [Compound B7-5, fenoxaprop-P-ethyl]
Polygonum convolvulus Control in % (45 g of ai/ha): 35%

C#CCOC(=O)[C@@H](C)Oc1ccc(Oc2ncc(Cl)cc2F)cc1 [Compound B7-1, clodinafop-propargyl]
Polygonum convolvulus Control in % (20 g of ai/ha): 5%

Cc1cc(Cl)ccc1O[C@H](C)C(=O)O [Compound B4-5, mecoprop-P]
Polygonum convolvulus Control in % (200 g of ai/ha): 50%

Nc1c([N+](=O)[O-])ccc(Oc2ccccc2)c1Cl [Compound B1-2, aclonifen]
Polygonum convolvulus Control in % (100 g of ai/ha): 20%

O=C(O)COc1ccc(Cl)cc1Cl [Compound B5-2, 2,4-D]
Polygonum convolvulus Control in % (200 g of ai/ha): 55%

COC(=O)C(C)Oc1ccc(Oc2ccc(Cl)cc2Cl)cc1 (centres unmarked) [Compound B7-3, diclofop-methyl]
Polygonum convolvulus Control in % (1000 g of ai/ha): 15%

sodium salt of 2-iodo-N-[(4-methoxy-6-methyl-1,3,5-triazin-2-yl)carbamoyl]benzenesulfonamide [Compound A-2]
Polygonum convolvulus Control in % (2.5 g of ai/ha): 10% and 20%

Cc1cc(Cl)ccc1OCC(=O)O [Compound B5-3, MCPA]
Polygonum convolvulus Control in % (200 g of ai/ha): 50%
